Laboratory results taken from publication PMC7323874, “Vancomycin Resistance Is Overcome by Conjugation of Polycationic Peptides” (Angewandte Chemie (International Ed. in English), 2020).
≈ marks a conversion by molar mass, not a printed value. Like-named read-outs stand apart in the source and are kept apart here.

Assays:
Type in all cases: cell-based
E. faecium UL602570* = assay: microbe, parasite or virus in culture
Method: (§1) Antimicrobial testing – Microdilution
(§2) Antimicrobial testing was performed according to CLSI and EUCAST guidelines in microdilution.8-10 Therefore, all tested substances as well as controls were dissolved in water in different concentrations and serially diluted in MHB II (cation adjusted) on the 96-well plate. A logarithmic growing, overnight culture of the respective bacterial strain was used and adjusted to a McFarland corresponding to 1 × 10^8 cfu/ml. Afterwards the bacterial suspension was diluted to 1 ×10^6 cfu/ml and loaded on the 96-well polypropylene plates, resulting in a final bacterial concentration of 5 × 10^5 cfu/ml. After an incubation at 35 ± 1 °C for 18-20 hours (re-controlled after 24 hours) the MIC was determined as the lowest concentration without visible growth as described previously.11 For direct comparison of the tested substances, all results were calculated in mg/ml and mol/ml afterwards. […]
Resistance development in S. aureus was determined by passaging bacteria in increasing amounts of vancomycin, FU002 or, as control, fusidic acid. In principle, tubes with twofold dilutions of the compounds in 1 ml Muller Hinton broth were inoculated 1:100 with bacterial suspension. […]
(§3) For the validation of possible side effects provoked by the conjugates, the cytotoxic effect of the lead candidate FU002 on human cells was assessed in a colorimetric viability assay. […]

A. baumannii SC300007 = assay: microbe, parasite or virus in culture
Method: as §1, §2
(§4) As further control substance, the glycopeptide antibiotic teicoplanin was evaluated. […] Resistance development in S. aureus was determined by passaging bacteria in increasing amounts of vancomycin, FU002 or, as control, fusidic acid. In principle, tubes with twofold dilutions of the compounds in 1 ml Muller Hinton broth were inoculated 1:100 with bacterial suspension. The tubes were then incubated for 24 h at 37 °C under shaking. After each passage, the tube with the highest compound concentration showing bacterial growth was used to inoculate the tubes of the next passage (1:100). The tube with the lowest compound concentration showing no growth was defined as the passage MIC. Passaging was stopped after 8 passages.
(§5) For the validation of possible side effects provoked by the conjugates, the cytotoxic effect of the lead candidate FU002 on human cells was assessed in a colorimetric viability assay. Different human cell types were used including kidney and liver cell lines as well as freshly isolated peripheral blood cells. Cells were seeded into 96-well microtiter plates at 2 x 10^4 cells/well and cultured overnight (18-24 h) in a […]

[1] = tested on: K. pneumoniae ATCC 700603; assay: microbe, parasite or virus in culture
Method: as §1, §2, §4, §5

[2] = tested on: Staphylococcus aureus USA300 LAC; assay: microbe, parasite or virus in culture; conditions: for MIC: Staphylococcus aureus, MRSA / USA300, 24 h
Method: as §1, §2
Resistance development study
Resistance development in S. aureus was determined by passaging bacteria in increasing amounts of vancomycin, FU002 or, as control, fusidic acid. In principle, tubes with twofold dilutions of the compounds in 1 ml Muller Hinton broth were inoculated 1:100 with bacterial suspension. The tubes were then incubated for 24 h at 37 °C under shaking. After each passage, the tube with the highest compound concentration showing bacterial growth was used to inoculate the tubes of the next passage (1:100). The tube with the lowest compound concentration showing no growth was defined as the passage MIC. Passaging was stopped after 8 passages.
as §5

[3] = tested on: Staphylococcus aureus NCTC 10442; assay: Blocking experiments with Nα,Nε-diacetyl-Lys-D-Ala-D-Ala in microdilution; conditions: at least 100-fold excess of Nα,Nε-Diacetyl-Lys-D-Ala-D-Ala, pre-incubation minimum 1 hour at room temperature
Method: as §1
Antimicrobial testing was performed according to CLSI and EUCAST guidelines in microdilution.8-10 Therefore, all tested substances as well as controls were dissolved in water in different concentrations and serially diluted in MHB II (cation adjusted) on the 96-well plate. A logarithmic growing, overnight culture of the respective bacterial strain was used and adjusted to a McFarland corresponding to 1 × 10^8 cfu/ml. Afterwards the bacterial suspension was diluted to 1 ×10^6 cfu/ml and loaded on the 96-well polypropylene plates, resulting in a final bacterial concentration of 5 × 10^5 cfu/ml. After an incubation at 35 ± 1 °C for 18-20 hours (re-controlled after 24 hours) the MIC was determined as the lowest concentration without visible growth as described previously.11 For direct comparison of the tested substances, all results were calculated in mg/ml and mol/ml afterwards.
as §4, with “For blocking experiments with NΑ,NΕ-DIACETYL-LYS-D-ALA-D-ALA the tested substances were incubated directly on the dilution plate with at least 100-fold excess of Nα,Nε-Diacetyl-Lys-D-Ala-D-Ala for a minimum of 1 hour at room temperature. Afterwards, the procedure was performed as described above. As” for “As”, “Passaging was stopped after 8 passages.” left out
as §3

SMILES | MIC (E. faecium UL602570*; Enterococcus faecium, read-out: MIC of E. faecium UL602570*) | MIC (A. baumannii SC300007; Acinetobacter baumannii, SC300007) | MIC ([1]; Klebsiella pneumoniae, ATCC700603) | MIC ([2]; read-out: MIC after 8 passages) | MIC ([2]; read-out: initial MIC) | effect of D-Ala-D-Ala binding motif on antibiotic activity [3] | MIC of E. faecium UL602570* (E. faecium UL602570*; comparison of conjugate, equimolar non-covalent mixture and vancomycin) | MIC (A. baumannii SC300007; A. baumannii SC300007, median of at least triplicates on two different plates) | MIC ([1]; K. pneumoniae ATCC 700603, median of at least triplicates on two different plates) | MIC after 8 passages ([2]; MRSA USA300 LAC, 8 passages in increasing compound concentrations, 24 h at 37 °C each) | initial MIC ([2]; MRSA USA300 LAC, before passaging, Muller Hinton broth, 24 h, 37 °C) | resistance development ([2]; after eight passages in increasing concentrations)
CN[C@H](CC(C)C)C(=O)N[C@H]1C(=O)N[C@@H](CC(N)=O)C(=O)N[C@H]2C(=O)N[C@H]3C(=O)N[C@H](C(=O)N[C@H](C(=O)O)c4cc(O)cc(O)c4-c4cc3ccc4O)[C@H](O)c3ccc(c(Cl)c3)Oc3cc2cc(c3O[C@@H]2O[C@H](CO)[C@@H](O)[C@H](O)[C@H]2O[C@H]2C[C@](C)(N)[C@H](O)[C@H](C)O2)Oc2ccc(cc2Cl)[C@H]1O [vancomycin] | > 64 µg/mL | ≥ 640 µg/mL | ≥ 640 µg/mL | 4 µg/mL (≈ 2.76 µM) | 0.5 µg/mL (≈ 0.345 µM) | suppresses the antibiotic activity |  |  |  |  |  | 
CC(C)C[C@H](C(=O)N[C@H]1C(=O)N[C@@H](CC(N)=O)C(=O)N[C@H]2C(=O)N[C@H]3C(=O)N[C@H](C(=O)N[C@H](C(=O)O)c4cc(O)cc(O)c4-c4cc3ccc4O)[C@H](O)c3ccc(c(Cl)c3)Oc3cc2cc(c3O[C@@H]2O[C@H](CO)[C@@H](O)[C@H](O)[C@H]2O[C@H]2C[C@](C)(N)[C@H](O)[C@H](C)O2)Oc2ccc(cc2Cl)[C@H]1O)N(C)C(=O)C1CCC(CN2C(=O)CC(SC[C@H](NC(=O)[C@H](CCCNC(=N)N)NC(=O)[C@H](CCCNC(=N)N)NC(=O)[C@H](CCCNC(=N)N)NC(=O)[C@H](CCCNC(=N)N)NC(=O)[C@H](CCCNC(=N)N)NC(=O)[C@@H](N)CCCNC(=N)N)C(N)=O)C2=O)CC1 (stereo partly shown) [FU002] |  |  |  |  |  | preserves its activity | 1 µg/mL | ≥ 640 µg/mL | ≥ 640 µg/mL | 4 µg/mL (≈ 1.47 µM) | 1 µg/mL | no resistance development was observed
